PMC4104029, “Mechanism of Action of Compound-13: An α1-Selective Small Molecule Activator of AMPK” (Chemistry & Biology, 2014)

Legend:
Type in all cases: cell-based
mouse hepatocytes = experiment: Adenine nucleotide ratios by capillary electrophoresis; details: 1 hr; C13 up to 100 μM
Protocol: Figure 4 The C2 Prodrug, C13, Potently Activates AMPK in Mouse Primary Hepatocytes (A) Isolated mouse hepatocytes were incubated with vehicle or the indicated concentrations of C13 for 1 hr. AICAR (0.5 mM) was included as a positive control. Cell lysates were analyzed using western blotting with the indicated antibodies. (B) AMPKα1 or AMPKα2 complexes were immunoprecipitated from hepatocyte extracts prepared as described in (A) and assayed for kinase activity using 0.2 mM AMARA and 0.1 mM ATP. Results are expressed as the mean Pi incorporated in picomoles per minute-milligram ± SD. (C) Hepatocytes were stimulated with 30 μM C13 for the indicated times prior to harvesting, with AICAR (0.5 mM, 1 hr) as positive control. Lysates were analyzed using western blotting with the indicated antibodies. (D) Mouse hepatocytes were treated with the indicated compounds for 1 hr, and adenine nucleotide ratios were determined using capillary electrophoresis of perchloric acid extracts. (E) Mouse hepatocytes were preincubated with 30 μM STO-609 for 30 min prior to stimulation with 30 μM C13 for 1 hr or with 1 μM ionomycin for 30 min. Lysates were analyzed using western blotting with the indicated antibodies. (F) Wild-type (LKB1^+/+) or LKB1-null (LKB1^−/−) mouse embryonic fibroblasts were incubated with the indicated concentrations of C13 for 1 hr. AICAR (2 mM) was included as a positive control. Lysates were analyzed using western blotting with the indicated antibodies. Results are representative of three independent experiments. […]
Isolation of primary hepatocytes. Hepatocytes were isolated from fasted mice by collagenase digestion (Berry and Friend, 1969). Cells were seeded in M199 containing 100 U/ml penicillin G, 100 µg/ml streptomycin, 0.1 % (w/v) BSA, 10 % (v/v) FBS, 10 nM insulin, 200 nM triiodothyronine and 100 nM dexamethasone. […]
Nucleotide measurements. […] Nucleotides were separated and quantified by capillary electrophoresis using a Beckman P/ACE instrument as previously described (Hawley, et al., 2010).

[1] = target: T1, AMPKα1 complexes in primary hepatocytes (Mus musculus, UniProt O54950+Q5EG47); experiment: Isoform-specific immunoprecipitate kinase assay from hepatocytes; details: 1 hr; washed immunoprecipitates
T1 construct: AMPKα1 or AMPKα2 complexes were immunoprecipitated from hepatocyte extracts; endogenous in cells; host or cells: primary mouse hepatocytes
T1 sequence (Q5EG47 whole entry, canonical isoform): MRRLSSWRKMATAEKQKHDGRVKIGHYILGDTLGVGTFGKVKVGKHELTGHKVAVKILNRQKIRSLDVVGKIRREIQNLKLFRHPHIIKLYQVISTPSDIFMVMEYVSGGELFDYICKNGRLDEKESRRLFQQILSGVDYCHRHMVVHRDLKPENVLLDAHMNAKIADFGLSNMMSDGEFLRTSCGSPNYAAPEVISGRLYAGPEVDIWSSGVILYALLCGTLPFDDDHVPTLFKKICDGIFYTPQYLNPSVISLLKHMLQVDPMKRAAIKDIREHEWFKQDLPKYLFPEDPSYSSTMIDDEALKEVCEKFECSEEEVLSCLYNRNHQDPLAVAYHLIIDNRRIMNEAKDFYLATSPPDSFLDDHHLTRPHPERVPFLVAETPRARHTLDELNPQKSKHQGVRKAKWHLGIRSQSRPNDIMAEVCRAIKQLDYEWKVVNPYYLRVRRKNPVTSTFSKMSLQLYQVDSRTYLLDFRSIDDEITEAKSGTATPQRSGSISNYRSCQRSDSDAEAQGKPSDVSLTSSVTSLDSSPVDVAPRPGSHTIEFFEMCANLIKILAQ
T1 sequence (Q9R078 2-270 partner limits assumed): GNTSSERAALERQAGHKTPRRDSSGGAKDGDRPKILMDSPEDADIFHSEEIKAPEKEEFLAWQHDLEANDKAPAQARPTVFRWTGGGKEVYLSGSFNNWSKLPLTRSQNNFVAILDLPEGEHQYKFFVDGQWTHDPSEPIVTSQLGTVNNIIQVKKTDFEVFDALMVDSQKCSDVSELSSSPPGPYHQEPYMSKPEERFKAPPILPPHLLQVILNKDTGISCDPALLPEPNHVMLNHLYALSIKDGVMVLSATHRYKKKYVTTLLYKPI
T1 sequence (O54950 whole entry, canonical isoform): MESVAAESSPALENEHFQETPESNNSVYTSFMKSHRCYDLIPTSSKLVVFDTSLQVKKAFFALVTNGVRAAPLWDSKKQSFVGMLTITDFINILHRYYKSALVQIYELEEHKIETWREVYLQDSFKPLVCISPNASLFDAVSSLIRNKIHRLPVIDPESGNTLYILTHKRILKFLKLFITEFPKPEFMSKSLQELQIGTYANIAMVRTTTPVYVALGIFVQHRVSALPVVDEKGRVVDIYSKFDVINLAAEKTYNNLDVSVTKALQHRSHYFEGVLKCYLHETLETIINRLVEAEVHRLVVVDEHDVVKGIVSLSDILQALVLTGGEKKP
Protocol: (§1) Figure 4 The C2 Prodrug, C13, Potently Activates AMPK in Mouse Primary Hepatocytes (A) Isolated mouse hepatocytes were incubated with vehicle or the indicated concentrations of C13 for 1 hr. AICAR (0.5 mM) was included as a positive control. Cell lysates were analyzed using western blotting with the indicated antibodies. (B) AMPKα1 or AMPKα2 complexes were immunoprecipitated from hepatocyte extracts prepared as described in (A) and assayed for kinase activity using 0.2 mM AMARA and 0.1 mM ATP. Results are expressed as the mean Pi incorporated in picomoles per minute-milligram ± SD. […] Lysates were analyzed using western blotting with the indicated antibodies. (D) Mouse hepatocytes were treated with the indicated compounds for 1 hr, and adenine nucleotide ratios were determined using capillary electrophoresis of perchloric acid extracts. […] Lysates were analyzed using western blotting with the indicated antibodies. […] Lysates were analyzed using western blotting with the indicated antibodies. […]
(§2) AMPK phosphotransferase activity was assayed in reactions (50 μl) containing 50 mM HEPES, pH 7.4, 10 mM MgCl2, 0.1 mM EGTA, 1 mM DTT, 0.01% BRIJ-35, 100 μM [γ-^32P]ATP (∼250 CPM⋅pmol^−1) and 200 μM AMARA (AMARAASAAALARRR). […] Washed filters were dried and [^32P] incorporation determined by Cherenkov counting. […]

[2] = target: T2, AMPKα2 complexes in primary hepatocytes (Mus musculus, UniProt O54950+Q8BRK8); experiment: as above; details: 1 hr; washed immunoprecipitates
T2 construct: AMPKα1 or AMPKα2 complexes were immunoprecipitated from hepatocyte extracts; endogenous in cells; host or cells: primary mouse hepatocytes
T2 sequence (Q8BRK8 whole entry): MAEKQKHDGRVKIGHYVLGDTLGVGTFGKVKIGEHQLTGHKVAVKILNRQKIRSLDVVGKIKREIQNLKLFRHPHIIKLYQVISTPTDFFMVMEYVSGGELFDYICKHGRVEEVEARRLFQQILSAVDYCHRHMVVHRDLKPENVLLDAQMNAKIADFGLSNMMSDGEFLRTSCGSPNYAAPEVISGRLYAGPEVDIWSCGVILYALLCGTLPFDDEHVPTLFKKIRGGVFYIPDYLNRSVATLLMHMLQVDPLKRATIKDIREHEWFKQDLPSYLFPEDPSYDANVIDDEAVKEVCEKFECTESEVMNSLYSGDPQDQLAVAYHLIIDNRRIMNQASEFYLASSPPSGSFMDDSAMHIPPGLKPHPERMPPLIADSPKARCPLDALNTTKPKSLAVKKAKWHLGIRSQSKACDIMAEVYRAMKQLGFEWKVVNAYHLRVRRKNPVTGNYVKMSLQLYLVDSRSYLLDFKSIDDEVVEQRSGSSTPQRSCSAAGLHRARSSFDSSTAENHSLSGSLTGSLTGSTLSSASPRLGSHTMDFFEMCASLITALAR
T2 sequence (Q9R078 2-270 partner limits assumed): as the sequence (Q9R078 2-270 partner limits assumed) above
T2 sequence (O54950 whole entry): as the sequence (O54950 whole entry, canonical isoform) above
Protocol: as §1, §2

CC(C)C(=O)OCOP(=O)(OCOC(=O)C(C)C)c1ccc(C2=NOC(=O)C2)o1 [Compound C13]
ADP:ATP and AMP:ATP ratios (mouse hepatocytes): no detectable changes
concentration at which complexes were stimulated [1]: 3 µM
concentration above which activation was evident [2]: above 30 μM
